# pIC50: −log10 of the molar value.
# Assays:
# [1] = target: T1, adenosine A2a (human) membrane (Homo sapiens, UniProt P29274); assay: A2A adenosine receptor radioligand binding assay ([3H] CGS-21680); details: radioligand [3H] CGS-21680 6 nM, RT 2 hours
# T1 construct: purchased PerkinElmer RBHA2AM400UA
# Experimental: A second A2A adenosine receptor radioligand binding assay protocol was used. The protocol used adenosine A2a (human) membrane (PerkinElmer RBHA2AM400UA) at a concentration of […]/well/100 μl and the radioligand [3H] CGS-21680 (Cat No. PerkinElmer-NET1021250UC) at a final concentration of 6 nM. Testing compounds were diluted with DMSO to make 8-point 4-fold serial dilution, starting at 0.2 mM. CGS-15943 was the reference compound. 1 μl of compounds/high control/low control was transferred to the assay plate according to a plate map, followed by 100 μl of membrane stocks and 100 μl of radioligand, in assay buffer (50 mM Tris-HCl, 10 mM MgCl2, 1 mM EDTA, pH 7.4). The plate was sealed and incubated at RT for 2 hours. Unifilter-96 GF/C filter plates (Perkin Elmer Cat #6005174) were soaked with 50 μl of 0.3% PEI per well for at least 0.5 hour at room temperature. When the binding assays were completed, the reaction mixtures were filtered through GF/C plates using Perkin Elmer Filtermate Harvester, and each plate washed 4 times with cold wash buffer (50 mM Tris-HCl, 154 mM NaCl, pH 7.4). The filter plates were dried for 1 hour at 50 degrees. After drying, the bottom of the filter plate wells was sealed, 50 μl of Perkin Elmer Microscint 20 cocktail was added, and the top of the filter plate was sealed. ^3H trapped on the filter was counted using Perkin Elmer MicroBeta2 Reader. The data were analyzed with GraphPad Prism 5 to obtain binding IC50 values. The “Inhibition [% Control]” was calculated using the equation: % Inh=(1−Background subtracted Assay value/Background subtracted HC value)*100, where HC is high control.
# [2] = target: T2, human recombinant adenosine A2A receptor (Homo sapiens, UniProt P29274); assay: cAMP assay (Assay 2) in HEK-293 cells expressing A2A receptor; format: cell-based; details: HEK-293 cells expressing human recombinant adenosine A2A receptor; reducing A2A cAMP levels
# T2 construct: expressed in transfected cells; host or cells: HEK-293
# Experimental: The functional activity of compound 1.5 was tested using Assay 2 below, to detect the presence of cAMP. Assay 1 is an alternative assay for this purpose. Activation of G-protein coupled receptors (such as A2A) results in activation of adenylyl cyclase which converts ATP into cAMP which is used as a downstream signaling molecule. Molecules which act as GPCR (or specifically A2A receptor) antagonists cause a decrease in intracellular cAMP concentration.
# Assay 2 (Table B2): This assay used HEK-293 cells expressing human recombinant adenosine A2A receptor that were grown prior to the test in media without antibiotic. 100 nL of test articles at 100× of final concentration were transferred to assay plate by Echo. Cells were washed twice with 5 mL of PBS and 10 pL of cells were mixed with 5 mL PBS. After aspirating the PBS and adding 1.5 mL versine, cells were incubated at 37° C. for 2-5 min. After centrifugation, 4 mL of medium was added and adjusted cell density to 5,000 cells/well with Stimulation Buffer. 10 pL of cells were aliquoted to the assay plate, centrifuged at 1000 rpm for 1 minute, and incubated for 60 minutes at room temperature. 5 pL 4× Eu-cAMP tracer solution and 5 pL 4× Ulight™-anti-cAMP solution were added to assay plate, followed by centrifugation and 60-minute incubation at room temperature. Plates were read on EnVision. […]
# T1 sequence (P29274 whole entry): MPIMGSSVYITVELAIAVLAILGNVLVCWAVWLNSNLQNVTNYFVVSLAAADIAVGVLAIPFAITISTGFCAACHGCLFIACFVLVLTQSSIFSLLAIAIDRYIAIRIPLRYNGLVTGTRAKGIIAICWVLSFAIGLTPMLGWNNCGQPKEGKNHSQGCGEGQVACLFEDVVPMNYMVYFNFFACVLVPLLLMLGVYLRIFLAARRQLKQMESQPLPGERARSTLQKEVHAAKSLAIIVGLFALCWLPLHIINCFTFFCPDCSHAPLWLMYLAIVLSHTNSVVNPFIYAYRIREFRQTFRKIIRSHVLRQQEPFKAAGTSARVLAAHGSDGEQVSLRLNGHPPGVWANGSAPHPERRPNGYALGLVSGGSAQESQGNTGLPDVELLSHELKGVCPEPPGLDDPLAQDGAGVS
# T2 sequence (P29274 whole entry): as above
structure (smiles),measurement,setting,value
"O=c1ccc2nc(-c3ccc4ncccc4c3)c(-c3ccccc3)nc2[nH]1 [Compound 1.4, 3-phenyl-2-(quinolin-6-yl)pyrido[2,3-b]pyrazin-6(5H)-one]",pIC50,[1],8.26
"O=c1cc[nH]c2nc(-c3ccccc3)c(-c3ccc4ncccc4c3)nc12 [Compound 1.5, 3-phenyl-2-(quinolin-6-yl)pyrido[2,3-b]pyrazin-8(5H)-one]",pIC50,[1],7.74
same,pIC50,[2],6.49
"Cn1ccc(=O)c2nc(-c3ccc4ncccc4c3)c(-c3ccccc3)nc21 [Compound 1.8, 5-methyl-3-phenyl-2-(quinolin-6-yl)pyrido[2,3-b]pyrazin-8(5H)-one]",pIC50,[1],6.02
"O=c1ccc2nc(-c3cc(Cl)c4ncccc4c3)c(-c3ccccc3)nc2[nH]1 [Compound 1.12, 2-(8-chloroquinolin-6-yl)-3-phenylpyrido[2,3-b]pyrazin-6(5H)-one]",pIC50,[1],8.18

# Source: patent US20230066315A1, “COMPOUNDS AND USES THEREOF” (Nuvation Bio Inc., priority 2019, published 2023)
